Read-outs that look alike come from different tables or passages of the source.
Key:
HCV NS5B = target: T1, HCV NS5B (Hepatitis C virus genotype 1b, UniProt Q9WMX2); experiment: HCV NS5B RdRp enzyme assay (standard or modified); assay type: biochemical
T1 construct: The protein was expressed with an 18 amino acid C-terminal truncation to enhance the solubility; made in house; host or cells: E. coli BL21(DE3)
Protocol: HCV NS5B RdRp cloning, expression, and purification. The cDNA encoding the NS5B protein of HCV, genotype 1b, was cloned into the pET21a expression vector. The protein was expressed with an 18 amino acid C-terminal truncation to enhance the solubility. The E. coli competent cell line BL21(DE3) was used for expression of the protein. Cultures were grown at 37° C. for ˜4 hours until the cultures reached an optical density of 2.0 at 600 nm. The cultures were cooled to 20° C. and induced with 1 mM IPTG. Fresh ampicillin was added to a final concentration of 50 μg/ml and the cells were grown overnight at 20° C.
Cell pellets (3 L) were lysed for purification to yield 15-24 mgs of purified NS5B. The lysis buffer consisted of 20 mM Tris-HCl, pH 7.4, 500 mM NaCl, 0.5% triton X-100, 1 mM DTT, 1mM EDTA, 20% glycerol, 0.5 mg/ml lysozyme, 10 mM MgCl2, 15 ug/ml deoxyribonuclease I, and Complete TM protease inhibitor tablets (Roche). After addition of the lysis buffer, frozen cell pellets were resuspended using a tissue homogenizer. To reduce the viscosity of the sample, aliquots of the lysate were sonicated on ice using a microtip attached to a Branson sonicator. The sonicated lysate was centrifuged at 100,000×g for 1 hr at 4° C. and filtered through a 0.2 μm filter unit (Corning).
The protein was purified using two sequential chromatography steps: Heparin sepharose CL-6B and polyU sepharose 4B (Pharmacia). The chromatography buffers were identical to the lysis buffer but contained no lysozyme, deoxyribonuclease I, MgCl2 or protease inhibitor and the NaCl concentration of the buffer was adjusted according to the requirements for charging the protein onto the column. Each column was eluted with a NaCl gradient which varied in length from 5-50 column volumes depending on the column type. After the final chromatography step, the resulting purity of the enzyme is >90% based on SDS-PAGE analysis. The enzyme was aliquoted and stored at −80° C.
Standard HCV NS5B RdRp enzyme assay. HCV RdRp genotype 1b assays were run in a final volume of 60 μl in 96 well plates (Corning 3600). The assay buffer is composed of 20 mM Hepes, pH 7.5, 2.5 mM KCl, 2.5 mM MgCl2, 1 mM DTT, 1.6 U RNAse inhibitor (Promega N2515), 0.01 mg/ml BSA (Sigma B6917), and 2% glycerol. All compounds were serially diluted (3-fold) in DMSO and diluted further in water such that the final concentration of DMSO in the assay was 2%. HCV RdRp genotype 1b enzyme was used at a final concentration of 28 nM. A polyA template was used at 6 nM, and a biotinylated oligo-dT12 primer was used at 180 nM final concentration. Template was obtained commercially (Amersham 27-4110). Biotinylated primer was prepared by Sigma Genosys. 3H-UTP was used at 0.6 μCi (0.29 μM total UTP). Reactions were initiated by the addition of enzyme, incubated at 30° C. for 60 min, and stopped by adding 25 μl of 50 mM EDTA containing SPA beads (4 μg/pl, Amersham RPNQ 0007). Plates were read on a Packard Top Count NXT after >1 hr incubation at room temperature.
Modified HCV NS5B RdRp enzyme assay. A modified enzyme assay was performed essentially as described for the standard enzyme assay except for the following: The biotinylated oligo dT12 primer was precaptured on streptavidin-coated SPA beads by mixing primer and beads in assay buffer and incubating at room temperature for one hour. Unbound primer was removed after centrifugation. The primer-bound beads were resuspended in 20 mM Hepes buffer, pH 7.5 and used in the assay at final concentrations of 20 nM primer and 0.67 μg/μl beads. Order of addition in the assay: enzyme (1.75 nM) was added to diluted compound followed by the addition of a mixture of template (0.36 nM), 3H-UTP (0.6 μCi, 0.29 μM), and primer-bound beads, to initiate the reaction; concentrations given are final. Reactions were allowed to proceed for 4 hours at 30° C.
IC50 values for compounds were determined using seven different [I]. […]

HCV replicon = HCV replicon FRET / luciferase assay; assay type: cell-based; conditions: Hepatitis C virus
Protocol: FRET Assay Preparation. The HCV FRET screening assay was performed in 96-well cell culture plates. The FRET peptide (Anaspec, Inc.) (Taliani et al., Anal. Biochem. 1996, 240, 60-67) contains a fluorescence donor, EDANS, near one end of the peptide and an acceptor, DABCYL, near the other end. The fluorescence of the peptide is quenched by […] resonance energy transfer (RET) between the donor and the acceptor, but as the NS3 protease cleaves the peptide the products are released from RET quenching and the fluorescence of the donor becomes apparent. The assay reagent was made as follows: 5× cell Luciferase cell culture lysis reagent from Promega (#E153A) diluted to 1× with dH2O, NaCl added to 150 mM final, the FRET peptide diluted to 20 μM final from a 2 mM stock.
To prepare plates, HCV replicon cells, with or without a Renilla luciferase reporter gene, were trypsinized and plated in a 96-well plate with titrated test compounds added in columns 3 through 12; columns 1 and 2 contained a control compound (HCV control inhibitor), and the bottom row contained cells with DMSO only. The plates were then placed in a CO2 incubator at 37° C.
Assays. Subsequent to addition of the test compounds described above (FRET Assay Preparation), at various times the plate was removed and Alamar blue solution (Trek Diagnostics, #00-100) was added to measure cellular toxicity. After reading in a Cytoflour 4000 instrument (PE Biosystems), plates were rinsed with PBS and then used for FRET assay by the addition of 30 ul of the FRET peptide assay reagent described above (FRET Assay Preparation) per well. The plate was then placed into the Cytoflour 4000 instrument which had been set to 340 excite/490 emission, automatic mode for up to 20 cycles and the plate read in a kinetic mode. Typically, the signal to noise using an endpoint analysis after the reads was at least three-fold. Alternatively, after Alamar blue reading, plates were rinsed with PBS, then used for luciferase assay using the Promega Dual-Glo Luciferase Assay System or the Promega EnduRen Live Cell Substrate assay.
Compound analysis was performed by quantification of the relative HCV replicon inhibition and the relative cytotoxicity values. To calculate cytoxicity values, the average Alamar Blue fluorescence signals from the control wells were set as 100% non-toxic. The individual signals in each of the compound test wells were then divided by the average control signal and multiplied by 100% to determine […]. To calculate the HCV replicon inhibition values, an average background value was obtained from the two wells containing the highest amount of HCV control inhibitor at the end of the assay period. These numbers were similar to those obtained from naive Huh-7 cells. The background numbers were then subtracted from the average signal obtained from the control wells and this number was used as 100% activity. The individual signals in each of the compound test wells were then divided by the averaged control values after background subtraction and multiplied by 100% to determine percent activity. EC50 values were calculated as the concentration which caused a 50% reduction in FRET or luciferase activity. The two numbers generated for the compound plate, percent cytoxicity and percent activity, were used to determine compounds of interest for further analysis.

[1] = HCV NS5B RdRp genotype 1b, standard or modified enzyme assay not specified, read-out: IC50
[2] = HCV replicon cells, 50% reduction in FRET or luciferase activity, read-out: EC50

T1 sequence (Q9WMX2 2420-2992): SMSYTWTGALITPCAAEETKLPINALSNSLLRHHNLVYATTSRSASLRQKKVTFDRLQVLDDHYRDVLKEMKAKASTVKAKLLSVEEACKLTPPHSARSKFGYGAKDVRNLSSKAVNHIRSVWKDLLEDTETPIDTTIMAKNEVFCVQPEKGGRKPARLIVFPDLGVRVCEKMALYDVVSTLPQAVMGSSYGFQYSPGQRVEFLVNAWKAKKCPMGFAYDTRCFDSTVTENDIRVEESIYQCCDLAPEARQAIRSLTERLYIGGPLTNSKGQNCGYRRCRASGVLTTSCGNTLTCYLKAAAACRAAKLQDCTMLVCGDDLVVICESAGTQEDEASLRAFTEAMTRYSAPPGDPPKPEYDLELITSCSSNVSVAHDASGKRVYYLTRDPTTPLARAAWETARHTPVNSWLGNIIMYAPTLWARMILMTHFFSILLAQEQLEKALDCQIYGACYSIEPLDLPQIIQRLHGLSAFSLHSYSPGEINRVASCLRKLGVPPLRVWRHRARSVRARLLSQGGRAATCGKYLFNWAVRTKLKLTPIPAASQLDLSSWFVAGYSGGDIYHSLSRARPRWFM

Structure (SMILES)	IC50 (HCV NS5B; [1]) [nM]	EC50 (HCV replicon; [2]) [nM]	IC50 (HCV NS5B) [nM]	EC50 (HCV replicon) [nM]
COc1ccc2c(c1)C1CC1(C(=O)N(C1CC1)[C@@H]1CCCC[C@H]1N(C)C)Cn1c-2c(C2CCCCC2)c2ccc(C(=O)NS(=O)(=O)N(C)C)cc21 (stereo partly drawn)	3 to 1000	3 to 1000	–	–
COc1ccc2c(c1)C1CC1(C(=O)N(C)CC1CCCCN1C)Cn1c-2c(C2CCCCC2)c2ccc(C(=O)NS(=O)(=O)N(C)C)cc21 (stereo not drawn)	3 to 1000	3 to 1000	–	–
COc1ccc2c(c1)C1CC1(C(=O)N1CCN(CC(=O)N3CCCC3)CC1)Cn1c-2c(C2CCCCC2)c2ccc(C(=O)NS(=O)(=O)C(C)C)cc21 (stereo not drawn)	3 to 1000	3 to 1000	–	–
C=CCN1CCN(C(=O)C23CC2c2cc(OC)ccc2-c2c(C4CCCCC4)c4ccc(C(=O)NS(=O)(=O)C(C)C)cc4n2C3)CC1 (stereo not drawn)	3 to 1000	3 to 1000	–	–
COc1ccc2c(c1)C1CC1(C(=O)N1CCCN(Cc3ccccc3)CC1)Cn1c-2c(C2CCCCC2)c2ccc(C(=O)NS(=O)(=O)N(C)C)cc21 (stereo not drawn)	3 to 1000	3 to 1000	–	–
COc1ccc2c(c1)C1CC1(C(=O)N(C)CC1(C3CCCCC3)CCCCC1)Cn1c-2c(C2CCCCC2)c2ccc(C(=O)NS(=O)(=O)N(C)C)cc21 (stereo not drawn)	3 to 1000	3 to 1000	–	–
COc1ccc2c(c1)C1CC1(C(=O)N1CCNC(c3ccc(Cl)cc3)C1)Cn1c-2c(C2CCCCC2)c2ccc(C(=O)NS(=O)(=O)N(C)C)cc21 (stereo not drawn)	3 to 1000	3 to 1000	–	–
COc1ccc2c(c1)C1CC1(C(=O)N1CCCN(C(=O)OC(C)(C)C)CC1)Cn1c-2c(C2CCCCC2)c2ccc(C(=O)NS(=O)(=O)N3CCC3)cc21 (stereo not drawn)	3 to 1000	3 to 1000	–	–
COc1ccc2c(c1)C1CC1(C(=O)N1CCN(C)CC1c1ccccc1)Cn1c-2c(C2CCCCC2)c2ccc(C(=O)NS(=O)(=O)C(C)C)cc21 (stereo not drawn) [drawing 74]	3 to 1000	3 to 1000	–	–
COc1ccc2c(c1)C1CC1(C(=O)N1CCCN(C(=O)OC(C)(C)C)CC1)Cn1c-2c(C2CCCCC2)c2ccc(C(=O)NS(=O)(=O)C(C)C)cc21 (stereo not drawn)	3 to 1000	3 to 1000	–	–
COc1ccc2c(c1)C1CC1(C(=O)NC1CC3CCC(C1)N3C)Cn1c-2c(C2CCCCC2)c2ccc(C(=O)NS(=O)(=O)N(C)C)cc21 (stereo not drawn)	–	–	3 to 1000	3 to 1000
COc1ccc2c(c1)C1CC1(C(=O)N1CCN(C)CC1c1ccccc1)Cn1c-2c(C2CCCCC2)c2ccc(C(=O)NS(=O)(=O)N3CCC3)cc21 (stereo not drawn)	3 to 1000	3 to 1000	–	–
